According to US4749690A, “Treatment of allergy with thymopentin” (Ortho Pharmaceutical Corporation, priority 1986, dated 1988):
“Also recorded” adds a separate entry of the source. No end group written: not given here.

Assays:
T lymphocytes = conditions: background art; cited from earlier work
[1] = system: patients with Ragweed Hay Fever; experiment: double-blind placebo-controlled phase II study, patient-diary hay fever symptom counts; assay type: in vivo, human; conditions: for Average # Weekly Symptoms, Severe / Average # Weekly Symptoms, Total / Average # Weekly Symptoms, Mild: average per subject over weeks 3-12; for hay fever symptoms compared with placebo group (in words): 12 weeks
Excerpt: Each group was given a subcutaneous injection three times a week and an intravenous injection once a week; in the first group the first injection was thymopentin while the second was placebo, in the second group the first injection was placebo and the second thymopentin, while in the third group both injections were placebo. […] The application of the present invention is illustrated by the clinical study on thymopentin in the treatment of patients with Ragweed Hay Fever given in the Example which follows. Thirty (30) patients with a proven history of ragweed hay fever, who fulfill all of the inclusion criteria and none of the exclusion criteria, were enrolled in this single site study. This invention was a placebo-controlled phase II safety and efficacy study of Thymopentin (TP5) in the treatment of patients with Ragwood Hay Fever. Thirty (30) patients were assigned to either TP5 or placebo according to a double blind randomization schedule. Ten (10) patients were assigned to each of three (3) treatment groups described as follows. Group 1 received 1.0 ml TP5 (50 mg/ml) subcutaneously three (3) times per week and 5.0 ml placebo intravenously once weekly for twelve (12) weeks. Group 2 received 1.0 ml placebo subcutaneously three (3) times per week and 5.0 ml TP5 (20 mg/ml) intravenously once weekly for twelve (12) weeks. Group 3 received 1.0 ml placebo subcutaneously three (3) times per week and 5.0 ml placebo intravenously once weekly for twelve (12) weeks. 1. Each patient received subcutaneous injections three (3) times per week and one intravenous injection per week for twelve weeks, according to the group randomization schedule described above. 2. All patients received a diary in which allergy medication (chlortrimeton) taken during the course of the study and symptoms related to Ragweed Hay Fever were documented. Patients received specific instructions pertaining to continued maintenance of their symptom and medication diaries. The diaries were reviewed weekly and returned upon termination of treatment. Each of the thirty subjects recorded twice daily the occurrence of five symptoms using the mutually exclusive scores "none", "mild", and "severe". The efficacy of treatment was determined by comparison of the average weekly number of mild and severe symptoms per subject. In one analysis, a score was created for each subject based upon the number of times certain symptoms were noted over the ten-week period of study. Each occurrence of a mild or severe symptom was scored as "1" and the average weekly score over the ten weeks for which data were collected was computed for each subject. Pair-wise comparisons were made among the three groups using a standard t-test. […] A more detailed analysis used a repeated measures analysis of variance, in which the total weekly symptoms were compared on a week-by-week basis. The results are presented in Table II and graphically in FIGS. 1 through 3. This analysis indicates high significance among the three groups with respect to severe symptoms and all symptoms.

## RKDVY [TP5, H-ARG-LYS-ASP-VAL-TYR-OH]
T lymphocytes
  differentiation of T lymphocytes (in words): selectively stimulate the differentiation of T lymphocytes
[1]; Group 1 (TP5 sc)
  Average number of symptoms per week per subject, Cough Mild: 0.14
  Average number of symptoms per week per subject, Cough Sev.: 0.02
  Average number of symptoms per week per subject, Itchy Eyes Mild: 2.45
  Average number of symptoms per week per subject, Itchy Eyes Sev.: 0.18
  Average number of symptoms per week per subject, Red Eyes Mild: 1.12
  Average number of symptoms per week per subject, Red Eyes Sev.: 0.12
  Average number of symptoms per week per subject, Runny Nose Mild: 3.51
  Average number of symptoms per week per subject, Runny Nose Sev.: 1.86
  Average number of symptoms per week per subject, Sneezing Mild: 2.97
  Average number of symptoms per week per subject, Sneezing Sev.: 0.46
[1]; Group 1, TP5 50 mg s.c. 3x/week, p vs placebo .1382
  Average # Weekly Symptoms, Severe: 2.64
[1]; Group 1, TP5 50 mg s.c. 3x/week, p vs placebo .1394
  Average # Weekly Symptoms, Total: 12.84
[1]; Group 1, TP5 50 mg s.c. 3x/week, p vs placebo .3059
  Average # Weekly Symptoms, Mild: 10.20
[1]; Group 1, thymopentin 50 mg subcutaneously three times per week, listed as Thymopentin
  hay fever symptoms compared with placebo group (in words): the difference from placebo is not statistically significant; also recorded: decreasing the number of severe hay fever symptoms
[1]; Group 1, thymopentin 50 mg subcutaneously three times per week, listed as thymopentin
  hay fever symptoms compared with placebo group (in words): experienced fewer symptoms than group 3; also recorded: effective regimens to palliate allergic symptoms
[1]; Group 1 TP5 s.c., week 3
  Total Mild & Severe Symptoms Combined, average weekly number: 5.78
  Total Mild Symptoms, average weekly number: 5.22
  Total Severe Symptoms, average weekly number: 0.56
[1]; Group 1 TP5 s.c., week 4
  Total Mild & Severe Symptoms Combined, average weekly number: 9.22
  Total Mild Symptoms, average weekly number: 8.11
  Total Severe Symptoms, average weekly number: 1.11
[1]; Group 1 TP5 s.c., week 5
  Total Mild & Severe Symptoms Combined, average weekly number: 9.78
  Total Mild Symptoms, average weekly number: 9.00
  Total Severe Symptoms, average weekly number: 0.78
[1]; Group 1 TP5 s.c., week 6
  Total Mild & Severe Symptoms Combined, average weekly number: 11.56
  Total Mild Symptoms, average weekly number: 10.11
  Total Severe Symptoms, average weekly number: 1.44
[1]; Group 1 TP5 s.c., week 7
  Total Mild & Severe Symptoms Combined, average weekly number: 14.44
  Total Mild Symptoms, average weekly number: 13.11
  Total Severe Symptoms, average weekly number: 1.33
[1]; Group 1 TP5 s.c., week 8
  Total Mild & Severe Symptoms Combined, average weekly number: 16.33
  Total Mild Symptoms, average weekly number: 14.44
  Total Severe Symptoms, average weekly number: 1.89
[1]; Group 1 TP5 s.c., week 9
  Total Mild & Severe Symptoms Combined, average weekly number: 19.67
  Total Mild Symptoms, average weekly number: 18.56
  Total Severe Symptoms, average weekly number: 1.11
[1]; Group 1 TP5 s.c., week 10
  Total Mild & Severe Symptoms Combined, average weekly number: 17.78
  Total Mild Symptoms, average weekly number: 15.22
  Total Severe Symptoms, average weekly number: 2.56
[1]; Group 1 TP5 s.c., week 11
  Total Mild & Severe Symptoms Combined, average weekly number: 16.89
  Total Mild Symptoms, average weekly number: 13.11
  Total Severe Symptoms, average weekly number: 3.78
[1]; Group 1 TP5 s.c., week 12
  Total Mild & Severe Symptoms Combined, average weekly number: 5.89
  Total Mild Symptoms, average weekly number: 5.67
  Total Severe Symptoms, average weekly number: 0.22
[1]; Group 2 (TP5 iv)
  Average number of symptoms per week per subject, Cough Mild: 0.48
  Average number of symptoms per week per subject, Cough Sev.: 0.03
  Average number of symptoms per week per subject, Itchy Eyes Mild: 0.84
  Average number of symptoms per week per subject, Itchy Eyes Sev.: 0.25
  Average number of symptoms per week per subject, Red Eyes Mild: 0.75
  Average number of symptoms per week per subject, Red Eyes Sev.: 0.08
  Average number of symptoms per week per subject, Runny Nose Mild: 3.03
  Average number of symptoms per week per subject, Runny Nose Sev.: 0.80
  Average number of symptoms per week per subject, Sneezing Mild: 2.33
  Average number of symptoms per week per subject, Sneezing Sev.: 0.61
[1]; Group 2, TP5 100 mg i.v. once weekly, p vs placebo .0145
  Average # Weekly Symptoms, Total: 9.20
[1]; Group 2, TP5 100 mg i.v. once weekly, p vs placebo .0232
  Average # Weekly Symptoms, Severe: 1.77
[1]; Group 2, TP5 100 mg i.v. once weekly, p vs placebo .0257
  Average # Weekly Symptoms, Mild: 7.43
[1]; Group 2, thymopentin 100 mg intravenously once per week, listed as Thymopentin
  hay fever symptoms compared with placebo group (in words): statistically significant difference from group 3; also recorded: decreasing the number of severe hay fever symptoms
[1]; Group 2, thymopentin 100 mg intravenously once per week, listed as thymopentin
  hay fever symptoms compared with placebo group (in words): This difference was statistically significant for group 2; also recorded: effective regimens to palliate allergic symptoms
[1]; Group 2 TP5 i.v., week 3
  Total Mild & Severe Symptoms Combined, average weekly number: 5.43
  Total Mild Symptoms, average weekly number: 4.43
  Total Severe Symptoms, average weekly number: 1.0
[1]; Group 2 TP5 i.v., week 4
  Total Mild & Severe Symptoms Combined, average weekly number: 8.86
  Total Mild Symptoms, average weekly number: 8.43
  Total Severe Symptoms, average weekly number: 0.43
[1]; Group 2 TP5 i.v., week 5
  Total Mild & Severe Symptoms Combined, average weekly number: 7.00
  Total Mild Symptoms, average weekly number: 6.71
  Total Severe Symptoms, average weekly number: 0.29
[1]; Group 2 TP5 i.v., week 6
  Total Mild & Severe Symptoms Combined, average weekly number: 10.86
  Total Mild Symptoms, average weekly number: 9.29
  Total Severe Symptoms, average weekly number: 1.57
[1]; Group 2 TP5 i.v., week 7
  Total Mild & Severe Symptoms Combined, average weekly number: 9.00
  Total Mild Symptoms, average weekly number: 8.00
  Total Severe Symptoms, average weekly number: 1.00
[1]; Group 2 TP5 i.v., week 8
  Total Mild & Severe Symptoms Combined, average weekly number: 11.00
  Total Mild Symptoms, average weekly number: 8.57
  Total Severe Symptoms, average weekly number: 2.43
[1]; Group 2 TP5 i.v., week 9
  Total Mild & Severe Symptoms Combined, average weekly number: 8.14
  Total Mild Symptoms, average weekly number: 7.71
  Total Severe Symptoms, average weekly number: 0.43
[1]; Group 2 TP5 i.v., week 10
  Total Mild & Severe Symptoms Combined, average weekly number: 5.14
  Total Mild Symptoms, average weekly number: 4.71
  Total Severe Symptoms, average weekly number: 0.43
[1]; Group 2 TP5 i.v., week 11
  Total Mild & Severe Symptoms Combined, average weekly number: 5.43
  Total Mild Symptoms, average weekly number: 5.14
  Total Severe Symptoms, average weekly number: 0.29
[1]; Group 2 TP5 i.v., week 12
  Total Mild & Severe Symptoms Combined, average weekly number: 1.71
  Total Mild Symptoms, average weekly number: 1.57
  Total Severe Symptoms, average weekly number: 0.14
[1]; double-blind study, route not specified
  alleviating the symptoms of allergic rhinitis compared to placebo (in words): statistically significant compared to placebo
[1]; general statement
  safety (in words): very safe drug
